Assay results from paper PMC9394307, “Discovery of Putative Dual Inhibitor of Tubulin and EGFR by Phenotypic Approach on LASSBio-1586 Homologs” (Pharmaceuticals, 2022).
Where “and” joins values, the source holds several entries; their conditions need not be identical. Equal values may be shown once. Read-outs that look alike come from different tables or passages of the source.

How the values were obtained:
[1] = test system: HL-60; assay: MTT cell viability assay, HL-60; format: cell-based, human; conditions: Homo sapiens, MTT, value (95% CI), read-out: CC50 (µM) (CI) HL-60
Description: (§1) The cytotoxic activity of compounds 3–13 was determined based on an MTT assay against different human tumor cell lines, using LASSBio-1586 (2), LASSBio-1735 (3), CA-4 (1) and pelitinib as standards (Table 2). To determine the cytotoxic selectivity index, compounds were also evaluated toward human lymphocytes (Table 3).
(§2) The target compounds were tested (0.0001–100 µM) for cytotoxic activity against selected human cancer cell lines, such as HL-60 (acute promyelocytic leukemia), MCF-7 (mammary adenocarcinoma), PC-3 (prostate adenocarcinoma), H1975 (non-small cell lung cancer—EGFR^L858R+T790M), PC-9 (non-small cell lung cancer—EGFR^L858R) H292 (mucoepidermoid pulmonary carcinoma—EGFR wild type), LoVo (colorectal adenocarcinoma—EGFRwild type) and GM16000 (lymphocyte). All the human cancer cell lines were purchased from Cell Bank of Rio de Janeiro—BCRJ. They were cultured in RPMI 1640 medium with 10% (v/v) FBS, 2 mM glutamine, at 37 °C in a humidified incubator containing 5% CO2.
(§3) The cytotoxicity of the compounds was evaluated by the MTT assay. […] For lymphocytic lines, a density of 0.3 × 10^6 cells/mL was used. Afterwards they were treated with varying concentrations of the target compounds 2–12 (0.0001–100 µM), CA-4 (1) and pelitinib at 37 °C, in triplicate. The medium was incubated with 20 μL of 5 mg/mL MTT solution for 3 h in a humidified incubator containing 5% CO2 [11].
(§4) The purple-colored formazan crystals formed in the wells were dissolved in DMSO and their absorbance was measured at 595 nm with a microplate reader (SpectraMax M5, Molecular Devices).

[2] = test system: H1975; assay: MTT cell viability assay, H1975; format: cell-based, human; conditions: MTT, value (95% CI), read-out: CC50 (µM) (CI) H1975
Description: as §1, §2, §3, §4

[3] = test system: H292; assay: MTT cell viability assay, H292; format: cell-based, human; conditions: MTT, value (95% CI), read-out: CC50 (µM) (CI) H292
Description: as §1, §2, §3, §4

[4] = test system: LoVo; assay: MTT cell viability assay, LoVo; format: cell-based; conditions: Homo sapiens, MTT, 72 h, value (95% CI), read-out: CC50 (µM) (CI) LoVo
Description: as §1, §2
(§5) The cytotoxicity of the compounds was evaluated by the MTT assay. The cell lines were cultured in 96 well plates for 72 h with a density of 0.1 × 10^5 cells/mL to 0.7 × 10^5 cells/mL to adherent cell lines. For lymphocytic lines, a density of 0.3 × 10^6 cells/mL was used. Afterwards they were treated with varying concentrations of the target compounds 2–12 (0.0001–100 µM), CA-4 (1) and pelitinib at 37 °C, in triplicate. The medium was incubated with 20 μL of 5 mg/mL MTT solution for 3 h in a humidified incubator containing 5% CO2 [11].
as §4

[5] = test system: MCF-7; assay: MTT cell viability assay, MCF-7; format: cell-based, human; conditions: Homo sapiens, MCF7, 72 h, MTT, 72 h; value (95% CI); read-out: CC50 (µM) (CI) MCF-7
Description: as §1, §2, §5, §4

[6] = test system: PC-3; assay: MTT cell viability assay, PC-3; format: cell-based; conditions: Homo sapiens, PC-3; MTT, 72 h; value (95% CI); read-out: CC50 (µM) (CI) PC-3
Description: as §1, §2, §5, §4

[7] = test system: PC-9; assay: MTT cell viability assay, PC-9; format: cell-based, human; conditions: MTT, value (95% CI), read-out: CC50 (µM) (CI) PC-9
Description: as §1, §2, §3, §4

[8] = MTT cell viability assay, GM16000 lymphocytes; format: cell-based; conditions: GM16000 lymphocyte cells (non-tumor), human lymphocytes, value (95% CI)
Description: as §1
To establish the cytotoxic selective index (SI) of LASSBio-1586 homologs, they were studied on human lymphocyte cell lines (GM16000), using the MTT assay. The SI was calculated by the ratio between the CC50 on tumor and non-tumor cell lines. Although there is no consensus, values of SI ≥ 10 is considered satisfactory to assign safety to a new cytotoxic agent. This value means that the compound is more than ten times more cytotoxic to the tumor cell line than to normal cell line.
as §2, §5, §4

[9] = test system: LoVo; assay: MTT cell viability assay, LoVo; format: cell-based; conditions: Homo sapiens, 48 h, value (95% CI)
[10] = MTT cell viability assay, GM16000 lymphocytes; format: cell-based; conditions: GM16000 lymphocyte cells (non-tumor), human lymphocytes, value (95% CI); remark: listed apart in the source
[11] = test system: H1975 cells; assay: Immunofluorescence of β-tubulin / microtubules; format: cell-based, human; conditions: H1975, 48 h; CA-4 0.3 µM, vincristine 0.5 µM, taxol 0.1 µM, LASSBio-1586 10 µM, LASSBio-1735 0.5 µM, LASSBio-2070 4.5 µM, LASSBio-2074 20 µM
Description: Antitubulin agents have been broadly classified into destabilizing or stabilizing agents, based on their interference with the dynamic balance of polymerization or depolymerization of microtubules. […] CA-4 (1, 0.3 µM), vincristine (0.5 µM) and taxol (0.1 µM) were used as standard controls.
After incubation, cells were rinsed with PBS and fixed with 4% paraformaldehyde in PBS for 10 min at room temperature. They were then permeabilized with 0.5% Triton-X 100 in PBS 3 times for 10 min. The same solution was used for all subsequent washing steps. Cells were incubated with an anti-beta-tubulin antibody for 1 h at 37 °C. After incubation, cells were washed for 30 min and incubated with Alexa Fluor® 488, conjugated secondary antibody for 1 h at 37 °C, and nuclei were labeled with DAPI (0.1 mg/mL in 0.9% NaCl).
Live cultured cells grown in coverslips were mounted in Prolong Gold solution (Molecular Probes, USA) and were imaged on a Leica TCS SPE confocal microscope (Leica Microsystems, Germany) using 63x 1.3 N.A. oil immersion and the images acquired by the LAS X software. Cell morphology, focusing on the microtubules was analyzed, qualitatively, using the public domain NIH ImageJ Program (developed at the National Institutes of the USA Health and available on the internet at http://imagej.nih.gov/ij/ (accessed on 1 September 2021).

[12] = Homo sapiens, NCI-H1975, 48 h, 48 h
[13] = Homo sapiens, NCI-H1975, 72 h, 72 h
[14] = Homo sapiens, NCI-H292, 48 h, 48 h
[15] = Homo sapiens, NCI-H292, 72 h, 72 h

COc1cc(C(=O)N(CCN2CCOCC2)/N=C/c2ccccc2)cc(OC)c1OC [LASSBio-2122 (12), (E)-N’-benzylidene-3,4,5-trimethoxy-N-(2-morpholinoethyl)benzohydrazide]
CC50 ([1]; HL-60, 48 h, 48 h): 5.09 µM
CC50 ([1]; HL-60, 72 h, 72 h): 4.15 µM
CC50 [2, 12]: 6.37 µM
CC50 [2, 13]: 2.48 µM
CC50 [3, 14]: 0.412 µM
CC50 [3, 15]: 2.79 µM
CC50 [4]: 0.421 µM
CC50 [5]: 4.11 µM
CC50 [6]: 2.4 µM
CC50 ([7]; Homo sapiens, PC-9, 48 h, 48 h): 1.5 µM
CC50 ([7]; Homo sapiens, PC-9, 72 h, 72 h): 0.871 µM
CC50 at 72 h [8]: 5.65 µM
CC50 [9]: 1.05 µM
CC50 at 48 h [10]: 3.8 µM

CC(=O)O[C@H]1C(=O)[C@@]2(C)[C@H]([C@H](OC(=O)c3ccccc3)[C@]3(O)C[C@H](OC(=O)[C@H](O)[C@@H](NC(=O)c4ccccc4)c4ccccc4)C(C)=C1C3(C)C)[C@]1(OC(C)=O)CO[C@@H]1C[C@@H]2O [taxol, reference compound]
cell morphology after treatment [11]: more spread-out morphology

C#CCN(/N=C/c1ccccc1)C(=O)c1cc(OC)c(OC)c(OC)c1 [LASSBio-2072 (9), (E)-N’-benzylidene-3,4,5-trimethoxy-N-(prop-2-yn-1-yl)benzohydrazide]
CC50 ([1]; HL-60, 48 h, 48 h): 5.85 µM
CC50 ([1]; HL-60, 72 h, 72 h): 0.158 µM
CC50 [2, 12]: 5.34 µM
CC50 [2, 13]: 3.98 µM
CC50 [3, 14]: 0.45 µM
CC50 [3, 15]: 3.14 µM
CC50 [4]: 0.399 µM
CC50 [5]: 2.32 µM
CC50 [6]: 2.25 µM
CC50 ([7]; Homo sapiens, PC-9, 48 h, 48 h): 1.27 µM
CC50 ([7]; Homo sapiens, PC-9, 72 h, 72 h): 0.46 µM
CC50 at 72 h [8]: 0.612 µM
melting point: 133.91 °C and 133 to 134 °C
CC50 [9]: 3.05 µM
CC50 at 48 h [10]: 2.52 µM

CCCN(/N=C/c1ccccc1)C(=O)c1cc(OC)c(OC)c(OC)c1 [LASSBio-2118 (5), (E)-N’-benzylidene-3,4,5-trimethoxy-N-propylbenzohydrazide]
CC50 ([1]; HL-60, 48 h, 48 h): 1.46 µM
CC50 ([1]; HL-60, 72 h, 72 h): 0.301 µM
CC50 [2, 12]: 1.12 µM
CC50 [2, 13]: 0.775 µM
CC50 [3, 14]: 0.181 µM
CC50 [3, 15]: 3.72 µM
CC50 [4]: 0.031 µM
CC50 [5]: 0.144 µM
CC50 [6]: 0.432 µM
CC50 ([7]; Homo sapiens, PC-9, 48 h, 48 h): 0.263 µM
CC50 ([7]; Homo sapiens, PC-9, 72 h, 72 h): 0.136 µM
CC50 at 72 h [8]: 0.843 µM
CC50 [9]: 0.74 µM
CC50 at 48 h [10]: 1.1 µM

CCN(/N=C/c1ccccc1)C(=O)c1cc(OC)c(OC)c(OC)c1 [LASSBio-2071 (4), (E)-N’-benzylidene-N-ethyl-3,4,5-trimethoxybenzohydrazide]
CC50 ([1]; HL-60, 48 h, 48 h): 6.03 µM
CC50 ([1]; HL-60, 72 h, 72 h): 0.231 µM
CC50 [2, 13]: 4.86 µM
CC50 ([2]; 48 h): 4.91 µM
CC50 [3, 15]: 2.55 µM
CC50 ([3]; 48 h): 0.3 µM
CC50 [4]: 0.301 µM
CC50 [5]: 1.24 µM
CC50 [6]: 1.66 µM
CC50 ([7]; Homo sapiens, PC-9, 72 h, 72 h): 0.384 µM
CC50 ([7]; 48 h): 0.881 µM
CC50 at 72 h [8]: 5.13 µM
melting point: 83.94 °C and 83 to 84 °C
CC50 [9]: 3.05 µM
CC50 at 48 h [10]: 2 µM

CC[C@]1(O)C[C@H]2CN(CCc3c([nH]c4ccccc34)[C@@](C(=O)OC)(c3cc4c(cc3OC)N(C=O)[C@H]3[C@@](O)(C(=O)OC)[C@H](OC(C)=O)[C@]5(CC)C=CCN6CC[C@]43[C@@H]65)C2)C1 [vincristine, reference compound]
cell morphology after treatment [11]: rounded shape
effect on microtubules (stabilizing / destabilizing profile) [11]: typical response of microtubule destabilizing agents

C=CCN(/N=C/c1ccccc1)C(=O)c1cc(OC)c(OC)c(OC)c1 [LASSBio-2069 (8), (E)-N-allyl-N’-benzylidene-3,4,5-trimethoxybenzohydrazide]
CC50 ([1]; HL-60, 48 h, 48 h): 0.526 µM
CC50 ([1]; HL-60, 72 h, 72 h): 1.35 µM
CC50 [2, 12]: 1.65 µM
CC50 [2, 13]: 3.74 µM
CC50 [3, 14]: 0.154 µM
CC50 [3, 15]: 0.778 µM
CC50 [4]: 0.298 µM
CC50 [5]: 1.6 µM
CC50 [6]: 0.462 µM
CC50 ([7]; Homo sapiens, PC-9, 48 h, 48 h): 0.276 µM
CC50 ([7]; Homo sapiens, PC-9, 72 h, 72 h): 0.387 µM
CC50 at 72 h [8]: 0.83 µM
melting point: 64.47 °C and 64 to 65 °C
CC50 [9]: 0.808 µM
CC50 at 48 h [10]: 0.095 µM

CCOc1cc2ncc(C#N)c(Nc3ccc(F)c(Cl)c3)c2cc1NC(=O)/C=C/CN(C)C [Pelitinib, reference compound]
CC50 ([1]; HL-60, 48 h, 48 h): 3.42 µM
CC50 ([1]; HL-60, 72 h, 72 h): 2.08 µM
CC50 [2, 12]: 2.57 µM
CC50 [2, 13]: 0.512 µM
CC50 [3, 14]: 0.48 µM
CC50 [3, 15]: 0.0784 µM
CC50 [4]: 0.037 µM
CC50 [5]: 3.91 µM
CC50 [6]: 2.48 µM
CC50 ([7]; Homo sapiens, PC-9, 48 h, 48 h): 0.325 µM
CC50 ([7]; Homo sapiens, PC-9, 72 h, 72 h): 0.0591 µM
CC50 at 72 h [8]: 2.75 µM
CC50 [9]: 1.7 µM
CC50 at 48 h [10]: 0.899 µM

CCCCN(/N=C/c1ccccc1)C(=O)c1cc(OC)c(OC)c(OC)c1 [LASSBio-2121 (6), (E)-N’-benzylidene-N-butyl-3,4,5-trimethoxybenzohydrazide]
CC50 ([1]; HL-60, 48 h, 48 h): 2.61 µM
CC50 ([1]; HL-60, 72 h, 72 h): 2.17 µM
CC50 [2, 12]: 1.71 µM
CC50 [2, 13]: 2.94 µM
CC50 [3, 14]: 0.215 µM
CC50 [3, 15]: 9.55 µM
CC50 [4]: 0.5 µM
CC50 [5]: 0.5 µM
CC50 [6]: 0.696 µM
CC50 ([7]; Homo sapiens, PC-9, 48 h, 48 h): 0.327 µM
CC50 ([7]; Homo sapiens, PC-9, 72 h, 72 h): 0.096 µM
CC50 at 72 h [8]: 0.961 µM
CC50 [9]: 2 µM
CC50 at 48 h [10]: 1.2 µM
